This is an account of results in US9868746B2, “Substituted 5-aminothieno[2,3-C]pyridazine-6-carboxamide analogs as positive allosteric modulators of the muscarinic acetylcholine receptor M4” (Vanderbilt University, priority 2012, dated 2018).

For the assay, the target named is T1, mAChR M4 (Homo sapiens, UniProt P08173).
T1 construct: expressed in transfected cells; host or cells: CHO-K1 cells stably transfected with M4 cDNA and chimeric G-protein Gqi5
T1 sequence (P08173 1-479): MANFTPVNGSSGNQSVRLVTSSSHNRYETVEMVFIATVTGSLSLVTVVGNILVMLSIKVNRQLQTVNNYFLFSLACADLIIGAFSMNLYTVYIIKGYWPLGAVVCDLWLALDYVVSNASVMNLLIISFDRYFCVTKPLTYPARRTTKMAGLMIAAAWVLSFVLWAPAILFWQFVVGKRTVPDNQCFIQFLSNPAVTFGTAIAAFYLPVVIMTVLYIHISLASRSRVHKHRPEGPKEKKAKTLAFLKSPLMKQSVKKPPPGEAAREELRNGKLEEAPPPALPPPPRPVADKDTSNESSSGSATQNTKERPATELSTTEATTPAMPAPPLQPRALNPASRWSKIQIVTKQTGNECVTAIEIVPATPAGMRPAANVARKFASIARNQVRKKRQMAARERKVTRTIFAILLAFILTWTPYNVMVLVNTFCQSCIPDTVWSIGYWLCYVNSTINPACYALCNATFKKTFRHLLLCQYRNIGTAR
Description: mAChR M4 cell-based functional assay (calcium mobilization, potentiation of EC20 acetylcholine response). Conditions: for EC50: mAChR M4 cell-based functional assay, >10,000 estimated for low potency compounds without plateau, read-out: EC50.

In general, Emax refers to the size of the effect at its maximum, as opposed to the concentration needed. Usually EC50 stands for the concentration needed to bring the measured effect to its halfway point. For the compound `Cc1nnc2sc(C(=O)NCCNC(=O)c3ccccc3)c(N)c2c1C` [Example B347], the EC50 was 1500 nM. Also, the Emax at 30 µM (% ACh maximum at 30 μM) came out at 59%.
The corresponding values for `Cc1nnc2sc(C(=O)NC3CN(C(=O)Oc4ccc(C(C)C)cc4)C3)c(N)c2c1C` [Example B348] are 54 nM and 72%.
`Cc1nnc2sc(C(=O)NC3CN(C(=O)Nc4ccc(C(C)C)cc4)C3)c(N)c2c1C` [Example B349]: the EC50 is 26 nM. Moreover, the Emax at 30 µM (% ACh maximum at 30 μM) stood at 71%.
In the same order, the values of `Cc1nnc2sc(C(=O)NC3CN(C(=O)Nc4ccc(F)cc4)C3)c(N)c2c1C` [Example B351] are 32 nM and 57%.
In the same order, the values of `Cc1nnc2sc(C(=O)NCCNS(C)(=O)=O)c(N)c2c1C` [Example B352] are greater than 10000 nM and 51%.
In the same order, the values of `Cc1nnc2sc(C(=O)NCCNS(=O)(=O)c3ccc(F)cc3)c(N)c2c1C` [Example B353] are 3400 nM and 57%.
As for `Cc1nnc2sc(C(=O)NCCNC(=O)Oc3ccccc3)c(N)c2c1C` [Example B354], the EC50 is 2000 nM. Moreover, for the setting “% ACh maximum at 30 μM”, the “Emax (%)*” value was 73%.
For the compound `Cc1nnc2sc(C(=O)NC3CN(C(=O)Oc4ccc(Cl)cc4)C3)c(N)c2c1C` [Example B355], the EC50 was 16 nM. The Emax at 30 µM (% ACh maximum at 30 μM) was found to be 58%.
For the compound `Cc1nnc2sc(C(=O)NC3CN(C(=O)Oc4ccc(C(F)(F)F)cc4)C3)c(N)c2c1C` [Example B356], the EC50 was 25 nM. Further, the Emax at 30 µM (% ACh maximum at 30 μM) was 61%.
In the same order, the values of `Cc1nnc2sc(C(=O)NCCN(C)C(=O)c3ccc(F)cc3)c(N)c2c1C` [Example B357] are greater than 10000 nM and 27%.
The corresponding values for `Cc1nnc2sc(C(=O)NCCN(C)S(=O)(=O)c3ccc(F)cc3)c(N)c2c1C` [Example B358] are 4500 nM and 49%.
Turning to `Cc1nnc2sc(C(=O)NC3CN(C(=O)Oc4cccc(Cl)c4)C3)c(N)c2c1C` [Example B359], the EC50 is 16 nM. The Emax at 30 µM (% ACh maximum at 30 μM) stood at 55%.
In the same order, the values of `Cc1nnc2sc(C(=O)NCCNS(=O)(=O)c3ccccc3)c(N)c2c1C` [Example B360] are 2500 nM and 52%.
Take `Cc1ccccc1OC(=O)N1CC(NC(=O)c2sc3nnc(C)c(C)c3c2N)C1` [Example B361]: the EC50 is 11 nM. Moreover, where the note is “% ACh maximum at 30 μM”, the Emax at 30 µM is 76%.
In the same order, the values of `Cc1nnc2sc(C(=O)NC3CN(C(=O)Nc4ccccc4)C3)c(N)c2c1C` [Example B362] are 18 nM and 64%.
On to `Cc1nnc2sc(C(=O)NC3CN(C(=O)Nc4ccc(OC(F)F)cc4)C3)c(N)c2c1C` [Example B363], for which the EC50 is 27 nM. Further, the Emax at 30 µM (% ACh maximum at 30 μM) was 74%.
For `Cc1nnc2sc(C(=O)NCCNC(=O)c3ccncc3)c(N)c2c1C` [Example B364], the EC50 was 3900 nM. In addition, under “% ACh maximum at 30 μM”, the Emax at 30 µM came out at 49%.
In the case of `Cc1cccc(OC(=O)N2CC(NC(=O)c3sc4nnc(C)c(C)c4c3N)C2)c1` [Example B365], the EC50 was 7.9 nM. Moreover, the Emax at 30 µM (% ACh maximum at 30 μM) amounted to 58%.
For `CC(=O)NCCNC(=O)c1sc2nnc(C)c(C)c2c1N` [Example B366], the EC50 was greater than 10000 nM. Further, the Emax at 30 µM (% ACh maximum at 30 μM) was found to be 32%.
In the same order, the values of `Cc1nnc2sc(C(=O)NCCNC(=O)C3CC3)c(N)c2c1C` [Example B367] are greater than 10000 nM and 52%.
The corresponding values for `COc1cccc(OC(=O)N2CC(NC(=O)c3sc4nnc(C)c(C)c4c3N)C2)c1` [Example B368] are 12 nM and 69%.
For the compound `Cc1nnc2sc(C(=O)NCCN(C)C(=O)c3ccccc3)c(N)c2c1C` [Example B369], the EC50 was greater than 10000 nM. Moreover, the Emax at 30 µM (% ACh maximum at 30 μM) is 25%.
On to `Cc1nnc2sc(C(=O)NC3CN(C(=O)Oc4cc(F)cc(F)c4)C3)c(N)c2c1C` [Example B370], for which the EC50 was 10 nM. Moreover, the Emax at 30 µM (% ACh maximum at 30 μM) turned out to be 61%.
